Our source for the IC50 values is ChEMBL document CHEMBL4270546, “A novel Anti-Cancer Stem Cells compound optimized from the natural symplostatin 4 scaffold inhibits Wnt/β-catenin signaling pathway” (Eur J Med Chem, 2018).

Type in all cases: functional, cell-based
Assay [1] concerns MCF7. Kind of assay: Antiproliferative activity against human MCF7 cells after 48 hrs by MTT assay. The settings on record: MCF7, 48 h. On the technique in general: Formazan colour is commonly taken as a measure of viable cells.
In assay [2] the test system is MDA-MB-231. Kind of assay: Antiproliferative activity against human MDA-MB-231 cells after 48 hrs by MTT assay. The settings on record: MDA-MB-231, 48 h.
Assay [3] has as its system 4T1. Kind of assay: Antiproliferative activity against mouse 4T1 cells after 48 hrs by MTT assay. As to conditions: 4T1, 48 h.
Assay [4] concerns A-375. The experiment in a line: Antiproliferative activity against human A375 cells after 48 hrs by MTT assay. As to conditions: A-375, 48 h.
Assay [5] deals with B16-F10. Kind of assay: Antiproliferative activity against mouse B16F10 cells after 48 hrs by MTT assay. The settings on record: B16-F10, 48 h.
Assay [6] concerns PANC-1. The experiment in a line: Antiproliferative activity against human PANC1 cells after 48 hrs by MTT assay. The settings on record: PANC-1, 48 h.
The subject of assay [7] is A549. The experiment in a line: Antiproliferative activity against human A549 cells after 48 hrs by MTT assay. As to conditions: A549, 48 h.
Assay [8] concerns HeLa. Kind of assay: Antiproliferative activity against human HeLa cells.
Assay [9] has as its system HT-29. The experiment in a line: Antiproliferative activity against human HT-29 cells.

Turning to `CC[C@H](C)[C@H](NC(=O)Nc1ccc(OC)cc1)C(=O)N[C@@H](CC(C)C)C(=O)N[C@@H](CC(C)C)C(=O)N[C@@H](C)/C=C/C(=O)N1C(=O)C=C(OC)[C@@H]1C(C)C`, the IC50 in [1] is 10.1 µM; in assay [2], 25.1 µM; in [3] it was 35.3 µM; in assay [4], 44.2 µM; in assay [5], 60.5 µM; in assay [6], greater than 100 µM. Also, in assay [7], 20.8 µM corresponded to half-maximal inhibition (IC50).

With `CC[C@H](C)[C@H](NC(=O)OCc1ccccc1)C(=O)O[C@@H](CC(C)C)C(=O)N[C@@H](CC(C)C)C(=O)N[C@@H](C)/C=C/C(=O)N1C(=O)C=C(OC)[C@@H]1C(C)C`, the IC50 in assay [1] amounted to 21.2 µM; in assay [2], 12.8 µM; in [3], 27.9 µM; in assay [4], 13.7 µM; in assay [5], 24.9 µM; in assay [6] it was 19.6 µM. For the same compound, in assay [7], the IC50 came out at 27.5 µM.

As for `C#CCCC(=O)N[C@H](C(=O)N[C@@H](CC(C)C)C(=O)N[C@@H](CC(C)C)C(=O)N[C@@H](C)/C=C/C(=O)N1C(=O)C=C(OC)[C@@H]1C(C)C)[C@@H](C)CC`, the IC50 worked out at 14.9 µM in assay [1]; 22.2 µM in [2]; 20.1 µM in [3]; 9.89 µM in [4]; 7.07 µM in assay [5]; 5.21 µM in assay [6]. Also, half-maximal inhibition in [7] (IC50) was put at 36.2 µM.

For `CC[C@H](C)[C@H](NC(=O)OCc1ccccc1)C(=O)O[C@@H](CC(C)C)C(=O)N[C@@H](CC(C)C)C(=O)N[C@@H](C)/C=C/C(=O)N1C(=O)C=C(OC)[C@@H]1C`, the IC50 came to 32.9 µM in assay [1]; 15.6 µM in [2]; 15 µM in assay [3]; 5.49 µM in [4]; 4.23 µM in assay [5]; 14 µM in assay [6]. In assay [7], this compound gave an IC50 of 13.8 µM.

Consider `CC[C@H](C)[C@H](NC(=O)OCc1ccccc1)C(=O)N[C@@H](CC(C)C)C(=O)N[C@@H](CC(C)C)C(=O)N[C@@H](C)/C=C/C(=O)N1C(=O)C=C(OC)[C@@H]1C`, for which the IC50 in [1] stood at 4.66 µM; in [2] it was 1.96 µM; in assay [3] it was 1.92 µM; in assay [4], 1.35 µM; in assay [5], 0.892 µM; in assay [6] it was 0.787 µM. The IC50 in assay [7] is 15.1 µM.

Consider `CC[C@H](C)[C@@H](C(=O)N[C@@H](CC(C)C)C(=O)N[C@@H](CC(C)C)C(=O)N[C@@H](C)/C=C/C(=O)N1C(=O)C=C(OC)[C@@H]1C(C)C)N(C)C`, for which the half-maximal inhibitory concentration (IC50) is greater than 100 µM in assay [1]; 98.3 µM in [2]; 27.6 µM in assay [3]; 35.7 µM in assay [4]; 61.6 µM in assay [5]; 36 µM in assay [6]. The compound also registered a half-maximal inhibitory concentration (IC50) in assay [7] of 52.5 µM.

For the compound `COC1=CC(=O)N(C(=O)/C=C/[C@H](C)NC(=O)[C@H](CC(C)C)N(C)C)[C@H]1Cc1ccccc1`, the IC50 in [1] is greater than 100 µM; in assay [2], 57.7 µM; in assay [3], greater than 100 µM; in assay [4], greater than 100 µM; in assay [5], greater than 100 µM; in [6], 67 µM. Also, in assay [7], the IC50 is greater than 100 µM.

Take `CC[C@H](C)[C@@H](C(=O)O[C@@H](CC(C)C)C(=O)N[C@@H](CC(C)C)C(=O)N[C@@H](C)/C=C/C(=O)N1C(=O)C=C(OC)[C@@H]1C)N(C)C` [GALLINAMIDE A]: the IC50 in [8] was found to be 12 µM; in assay [9], 53 µM; in [1] it was 45.5 µM; in [2], 34.9 µM; in [3], 34.6 µM; in [4], 45.6 µM. The half-inhibitory concentration (IC50) in assay [5] stood at 59.7 µM; in [6], 31.2 µM; in assay [7] it was 40.4 µM.

Turning to `COC1=CC(=O)N(C(=O)/C=C/[C@H](C)NC(=O)[C@H](CC(C)C)N(C)C)[C@H]1C`, the IC50 in [1] is 75.1 µM; in [2] it was 79.7 µM; in assay [3] it was 19.2 µM; in assay [4] it was 11.4 µM; in assay [5], 29.2 µM; in [6] it was 82.1 µM. In [7], this compound showed a half-inhibitory concentration (IC50) of 30 µM.

With `CC[C@H](C)[C@H](NC(=O)OCc1ccccc1)C(=O)N[C@@H](CC(C)C)C(=O)N[C@@H](CC(C)C)C(=O)N[C@@H](C)/C=C/C(=O)N1C(=O)C=C(OC)[C@@H]1Cc1ccccc1`, the 50% inhibitory concentration (IC50) in assay [1], in [2], in assay [3], in assay [4], in [5] and in [6] was greater than 100 µM in each case. The concentration for half-maximal inhibition (IC50) in assay [7] is greater than 100 µM.

Take `COC1=CC(=O)N(C(=O)/C=C/[C@H](C)NC(=O)[C@H](CC(C)C)N(C)C)[C@H]1C(C)C`: the concentration for half-maximal inhibition (IC50) in [1] was 18.6 µM; in assay [2], 89.5 µM; in assay [3] it was greater than 100 µM; in assay [4] it was 7.56 µM; in assay [5], 30.5 µM; in assay [6], 12.8 µM. This compound also gave an IC50 in [7] greater than 100 µM.

In the case of `CC[C@H](C)[C@H](NC(=O)OCc1ccccc1)C(=O)N[C@@H](CC(C)C)C(=O)N[C@@H](CC(C)C)C(=O)N[C@@H](C)/C=C/C(=O)N1C(=O)C=C(OC)[C@@H]1c1c[nH]c2ccccc12`, the 50% inhibitory concentration (IC50) in assay [1], in assay [2], in [3], in [4], in assay [5] and in assay [6] was greater than 100 µM throughout. Also, the concentration for half-maximal inhibition (IC50) in [7] was greater than 100 µM.

Take `CC[C@H](C)[C@@H](C(=O)O[C@@H](CC(C)C)C(=O)N[C@@H](CC(C)C)C(=O)N[C@@H](C)/C=C/C(=O)NC(C)(C)C)N(C)C`: the IC50 was greater than 100 µM in assay [1]; greater than 100 µM in [2]; greater than 100 µM in assay [3]; greater than 100 µM in [4]; greater than 100 µM in assay [5]; 38.3 µM in [6]. Besides, in assay [7], the IC50 is greater than 100 µM.

As for `CC[C@H](C)[C@@H](C(=O)O[C@@H](CC(C)C)C(=O)N[C@@H](CC(C)C)C(=O)N[C@@H](C)/C=C/C(=O)N1CCOCC1)N(C)C`, the 50% inhibitory concentration (IC50) in assay [1], in [2], in assay [3], in [4], in [5] and in [6] was greater than 100 µM in each case. Further, the IC50 in assay [7] is greater than 100 µM.

For `CC[C@H](C)[C@@H](C(=O)N[C@@H](CC(C)C)C(=O)N[C@@H](CC(C)C)C(=O)N[C@@H](C)/C=C/C(=O)N1C(=O)C=C(OC)[C@@H]1C)N(C)C`, the IC50 was 38.9 µM in assay [1]; 38.2 µM in assay [2]; 16.5 µM in [3]; 11.2 µM in assay [4]; 15.1 µM in [5]; 15.7 µM in [6]. The IC50 in assay [7] worked out at 50.5 µM.

Turning to `CC[C@H](C)[C@H](NC(=O)Cc1cccc(C(F)(F)F)c1)C(=O)N[C@@H](CC(C)C)C(=O)N[C@@H](CC(C)C)C(=O)N[C@@H](C)/C=C/C(=O)N1C(=O)C=C(OC)[C@@H]1C(C)C`, the concentration for half-maximal inhibition (IC50) is 11.2 µM in [1]; 32.8 µM in assay [2]; 40.8 µM in assay [3]; 15.2 µM in assay [4]; 15.2 µM in assay [5]; 11.6 µM in assay [6]. Further, the IC50 in [7] is 14.6 µM.

Turning to `CC[C@H](C)[C@H](NC(=O)OCc1ccccc1)C(=O)O[C@@H](CC(C)C)C(=O)N[C@@H](CC(C)C)C(=O)N[C@@H](C)/C=C/C(=O)N1C(=O)C=C(OC)[C@@H]1Cc1ccccc1`, the 50% inhibitory concentration (IC50) is greater than 100 µM in [1]; greater than 100 µM in assay [2]; 79.8 µM in assay [3]; 45.9 µM in assay [4]; 30.1 µM in [5]; 59.3 µM in assay [6]. This compound returned a half-maximal inhibitory concentration (IC50) in [7] of 41.4 µM.

For the compound `CC[C@H](C)[C@@H](C(=O)O[C@@H](CC(C)C)C(=O)N[C@@H](CC(C)C)C(=O)N[C@@H](C)/C=C/C(=O)OC)N(C)C`, the IC50 in assay [1], in assay [2], in [3], in assay [4], in assay [5] and in assay [6] was greater than 100 µM in each case. This compound came in with an IC50 in assay [7] greater than 100 µM.

`CC[C@H](C)[C@@H](C(=O)O[C@@H](CC(C)C)C(=O)N[C@@H](CC(C)C)C(=O)N[C@@H](C)/C=C/C(=O)N(CC)CC)N(C)C`: the concentration for half-maximal inhibition (IC50) in [1], in assay [2], in [3], in assay [4], in assay [5] and in [6] was greater than 100 µM each time. This compound also gave an IC50 in [7] greater than 100 µM.

On to `COC1=CC(=O)N(C(=O)/C=C/[C@H](C)NC(=O)[C@H](CC(C)C)N(C)C)[C@@H]1Cc1ccccc1`, for which the concentration for half-maximal inhibition (IC50) in assay [1] is greater than 100 µM; in [2] it was 94.8 µM; in assay [3], greater than 100 µM; in assay [4], greater than 100 µM; in assay [5], greater than 100 µM; in [6] it was 86.9 µM. This compound also had a 50% inhibitory concentration (IC50) in assay [7] greater than 100 µM.

One may read the IC50 as the concentration needed to halve the response being measured.
